In patent publication US8476051B2, “Thermostable alcohol dehydrogenase derived from Thermococcus guaymasensis” (priority 2008, dated 2013):
Entries after “also recorded” stand apart in the source; their conditions may differ. Like-named read-outs stand apart in the source and are kept apart here. Marks after values point to notes of the source that are not given here.

Legend:
[1] = target: T1, T. guaymasensis ADH (Thermococcus guaymasensis, UniProt F8S123); assay: Substrate specificity, alcohol oxidation (standard enzyme assay); type: biochemical; conditions: for Relative activity (alcohol oxidation): alcohols 50 mM, 100% = 2-butanol, 0.4 mM NADP^+, pH 10.5, 80° C.
Experimental: (§1) The purified enzyme (0.25 μg) initiated the enzyme assay. […] The protein concentrations of all samples were determined using the Bradford method and bovine serum albumin served as the standard protein (Bradford 1976).
(§2) The effect of pH on the enzyme activities was determined over a range of 5.5-11.4. The buffers (100 mM) used were phosphate (pH 5.5-8.0), EPPS (8.0-9.0), glycylglycine (9.0-9.7), and CAPS (9.7-11.4). The effect of the temperature on the enzyme activity was examined at temperatures from 30 to 95° C. Enzyme thermostability was determined by incubating the enzyme in sealed serum bottles at 80° C. and 95° C., respectively. Residual activity was assayed at various time intervals under the standard assay conditions. Substrate specificity was determined using primary and secondary alcohols (50 mM), diols and polyols (50 mM), or aldehydes and ketones (6 mM) under standard assay conditions.

[2] = target: T1, T. guaymasensis ADH; assay: Stereoselective conversion between acetoin and 2,3-butanediol (chiral GC); type: biochemical
Experimental: All the reactions were carried out at 30° C. for 24 hours unless specified. After that, the reaction mixture (1 ml) was extracted with 1 ml ethyl acetate or dichloride methane with shaking on a Gyrotory water bath shaker model G76 (New Brunswick Scientific Co., INC., NJ, USA) at 350 rpm for 30 min (room temperature). The stereoselectivity of the purified enzyme was determined using the Shimadzu GC-14A gas chromatography equipped with a CP-Chirasil-Dex CB column (0.25 mm ID×25 m length, Varian Inc., Palo Alto, Calif., USA). The following GC operating conditions included the FID detector (250° C.) at a sensitivity range of 10 and helium as the carrier gas at a linear velocity of 40 cm s^−1. […] The reaction mixture after extraction (0.5 μl) was directly applied onto the injector (200° C.) for each assay. The peak areas were quantitated using specific external standards.

[3] = target: T1, T. guaymasensis ADH; assay: Substrate specificity, aldehyde/ketone reduction (standard enzyme assay); type: biochemical; conditions: aldehydes or ketones 6 mM; 100% = 2-butanone; 0.2 mM NADPH, pH 7.5, 80° C.
Experimental: as §1, §2

[4] = tested on: T. guaymasensis ADH; assay: Effect of metal ions on enzyme activity (2-butanone reduction); type: biochemical, Thermococcus guaymasensis; conditions: up to 100 μM in the assay mixture
Experimental: as §2
Metal ions were added in the enzyme assay mixture at a final concentration of 100 μM.

[5] = tested on: C[C@H](O)[C@@H](C)O; assay: purified protein, by the assay type; conditions: other: co-substrate NADP^+ (0.4 mM); 80.0 °C
[6] = tested on: C[C@@H](O)[C@@H](C)O; assay: purified protein, by the assay type; conditions: other: co-substrate NADP^+ (0.4 mM); 80.0 °C
[7] = substrate: CC(=O)C(C)=O; assay: purified protein, by the assay type; conditions: other: co-substrate NADPH (0.2 mM); 80.0 °C
[8] = substrate: CCC(C)=O; assay: purified protein, by the assay type; conditions: other: co-substrate NADPH (0.2 mM); 80.0 °C
[9] = substrate: CC(=O)C(C)O; assay: purified protein, by the assay type; type: biochemical, Thermococcus guaymasensis; conditions: other: co-substrate NADPH (0.2 mM); 80.0 °C
Experimental: Apparent values of Km and Vmax were calculated using the curve fittings of SigmaPlot (Systat Software Inc., San Jose, Calif., USA).

[10] = ADH specific activity (spectrophotometric enzyme assay); type: biochemical
Experimental: as §1
The reaction was initiated by adding enzymes.

[11] = Oxygen sensitivity (residual activity after exposure to air); type: physicochemical; conditions: exposed to air for a week
Experimental: The effect of oxygen on enzyme activity was investigated by exposing the enzyme samples in the air at room temperature and determining the residual activity after oxygen exposure. The exposure was performed in the presence or absence of DDT and SDT. The residual activities of each sample at different time intervals were tested parallelly under the standard assay conditions.

[12] = oxidation, 50 mM substrate, 500 mM acetone, 1 mM NADP^+, 30° C., 24 hours

For 1-Propanol, the “Relative activity (alcohol oxidation)” value [1] was 15.1 ± 0.3%.

With `CC(=O)C(C)O` (racemic) [Acetoin] the “Oxidation of the substrate by the enzyme (in words)” value (“Oxidation of the substrate” below) [1] was “could not oxidize; also recorded: cannot be oxidized”, the “ee of (2R,3R)-2,3-butanediol and meso-2,3-butanediol over (2S,3S)-(+)-2,3-butanediol” value ([2]; reduction, 50 mM substrate, 500 mM isopropanol, 1 mM NADPH, 30° C., 24 hours) was > 99% and the “Relative activity (aldehyde/ketone reduction)” value [3] was 93 ± 3.2%.

For `CCC(O)CO` (stereo not shown) [1,2-Butanediol], the “Relative activity (alcohol oxidation)” value [1] was 25.6 ± 2.3%.

For `CCCC(O)CO` (stereo not shown) [1,2-Pentanediol], the “Relative activity (alcohol oxidation)” value [1] was 4.7 ± 0.3%.

With `CC(O)CCO` (stereo not shown) [1,3-Butanediol] the “Relative activity (alcohol oxidation)” value [1] was 35.4 ± 1.1%.

In the case of `CCCCO` [1-Butanol], the “Relative activity (alcohol oxidation)” value [1] is reported as 5.1 ± 0.2%.

In the case of `CCCCCO` [1-Pentanol], the “Relative activity (alcohol oxidation)” value [1] is reported as 0.8 ± 0.2%.

In the case of `CC(O)C(C)O` (stereo not shown) [2,3-Butanediol], the “Relative activity (alcohol oxidation)” value [1] is reported as 78.7 ± 3.4%.

For `CC(O)CC(C)O` (stereo not shown) [2,4-Pentanediol], the “Relative activity (alcohol oxidation)” value [1] was 9.2 ± 0.1%.

With `CCC(C)O` (stereo not shown) [2-Butanol] the “Activity meant by relative activity of 100% in alcohol oxidation” value ([1]; 50 mM substrate) was “^aThe relative activity of 100% in alcohol oxidation means 1144 ± 24 U mg^−1” and the “Relative activity (alcohol oxidation)” value [1] was 100 ± 2.2^a %.

In the case of `CCC(C)=O` [2-Butanone], the “Stereoselectivity of the reduction (in words)” value ([2]; reduction to chiral 2-butanols) is reported as “no stereoselectivity” and the “Relative activity (aldehyde/ketone reduction)” value [3] is reported as 100 ± 3.4^b %.

For `CCCC(C)O` (stereo not shown) [2-Pentanol], the “Relative activity (alcohol oxidation)” value [1] was 66.3%.

With `CCCC(C)=O` [2-Pentanone] the “Relative activity (aldehyde/ketone reduction)” value [3] was 86.2 ± 3.1%.

For `CC(C)O` [2-Propanol], the “Relative activity (alcohol oxidation)” value [1] was 88 ± 1.1%.

For `C[C@@H](O)[C@@H](C)O` [(2R,3R)-(−)-2,3-butanediol], the “Enantiomeric excess (ee) of product (3R)-acetoin” value [2, 12] was 94%.

With `CC=O` [Acetaldehyde] the “Relative activity (aldehyde/ketone reduction)” value [3] was 36 ± 4.2%.

In the case of `CC(C)=O` [Acetone], the “Relative activity (aldehyde/ketone reduction)” value [3] is reported as 149.4 ± 2.8%.

In the case of `CCCC=O` [Butyraldehyde], the “Relative activity (aldehyde/ketone reduction)” value [3] is reported as 112.4 ± 11.9%.

For `CC(=O)C(C)=O` [Diacetyl], the “Relative activity (aldehyde/ketone reduction)” value [3] was 134.8 ± 5.9%.

For `CCO` [Ethanol], the “Relative activity (alcohol oxidation)” value [1] was 5.7 ± 0.3%.

For `OCC(O)CO` [Glycerol], the “Relative activity (alcohol oxidation)” value [1] was 0.2 ± 0.1%.

For `N[C@@H](CO)C(=O)O` [L-serine], the “Oxidation of the substrate” value [1] was “no activity; also recorded: did not catalyze”.

With `C[C@@H](O)[C@H](N)C(=O)O` [L-threonine] the “Oxidation of the substrate” value [1] was “no activity; also recorded: did not catalyze” and the “Oxidation of the substrate” value ([1]; listed as threonine) was “did not catalyze”.

In the case of `CO` [Methanol], the “Oxidation of the substrate” value [1] is reported as “did not oxidize” and the “Relative activity (alcohol oxidation)” value [1] is reported as 0%.

With `[Zn+2]` [Zn^2+] the “Effect on enzyme activity (butanol formation)” value [4] was “inhibited” and the “Effect on enzyme activity (butanol formation)” value ([4]; listed as zinc) was “blocked”.

With `C[C@H](O)[C@@H](C)O` [meso-2,3-butanediol] the “Enantiomeric excess (ee) of product (3S)-acetoin” value [2, 12] was 88%.

For “T. guaymasensis ADH (Thermococcus guaymasensis)”, the Km [5] was 19300 µM, the Vmax [5] was 1430 µmol/min/mg and the kcat [5] was 952 s⁻¹. For the same molecule, the kcat/Km [5] was 49000 M⁻¹ s⁻¹, the Km [6] was 15200 µM and the Vmax [6] was 1110 µmol/min/mg. For the same molecule, the kcat [6] was 740 s⁻¹ and the kcat/Km [6] was 49000 M⁻¹ s⁻¹.

B1: T. guaymasensis ADH (Thermococcus guaymasensis) (protein)
chain: SKMRGFAMVDFGKAEWIEKERPKPGPYDAIVKPIAVAPCTSDIHTVFEAAFPREMCEFPRILGHEAVGEVVEVGSHVKDFKPGDRVVVPAITPDWRTLDVQRGYHQHSGGMLAGWKFSNPLKEGGKDGVFAEYFHVNDADMNLAHLPDEIKPEVAVMATDMMTTGFHGAELADIPLGGTVAVIGIGPVGLMAVAGARLLGAGRIIAVGSRPVCVEAAKYYGATDIVNRREHPDIAGRILELTGGEGVDSVIIAGGNVDVMKTAVKIVKPGGTVANINYFGSGDYLPIPRIEWGQGMAHKTIKGGLCPGGRLRMERLLDLIKYGRVDPSRLITHKFKGFDKIPEALYLMKDKPKDLIKPVVIIEE
For B1, the Km [7] was 210 µM, the Vmax [7] was 303 µmol/min/mg and the kcat [7] was 202 s⁻¹. The kcat/Km [7] was 962000 M⁻¹ s⁻¹, the Km [8] was 310 µM and the Vmax [8] was 285 U mg^−1. For the same molecule, the kcat [8] was 190 s⁻¹, the kcat/Km [8] was 613,000 s^−1M^−1 and the Km [9] was 320 µM. For the same molecule, the Vmax [9] was 213 µmol/min/mg, the kcat [9] was 142 s⁻¹ and the kcat/Km [9] was 444000 M⁻¹ s⁻¹.

B2: TgADH(C56S): TgADH mutant, serine for cysteine at position 56 (SEQ ID NO:10), expressed in E. coli Rosetta-2 (protein)
chain: MHHHHHHSSGLVPRGSGMKETAAAKFERQHMDSPDLGTDDDDKAMADIGSEFMSKMRGFAMVDFGKAEWIEKERPKPGPYDAIVKPIAVAPCTSDIHTVFEAAFPREMSEFPRILGHEAVGEVVEVGSHVKDFKPGDRVVVPAITPDWRTLDVQRGYHQHSGGMLAGWKFSNPLKEGGKDGVFAEYFHVNDADMNLAHLPDEIKPEVAVMATDMMTTGFHGAELADIPLGGTVAVIGIGPVGLMAVAGARLLGAGRIIAVGSRPVCVEAAKYYGATDIVNRREHPDIAGRILELTGGEGVDSVIIAGGNVDVMKTAVKIVKPGGTVANINYFGSGDYLPIPRIEWGQGMAHKTIKGGLCPGGRLRMERLLDLIKYGRVDPSRLITHKFKGFDKIPEALYLMKDKPKDLIKPVVIIEE
modifications: C56S with vector coding region
With B2 the “Enzyme activity compared with wild type TgADH (in words)” value [10] was “virtually no difference” and the “Activity after exposure to air (in words)” value [11] was “lost activity”.
